Experimental data as given in patent publication US7875625B2, “Cyclohepta[b]pyridine-3-carbonylguanidine derivative and pharmaceutical product containing same” (Toa Eiyo Ltd., priority 2005, dated 2011).
Structures can show the parent of a compound that is named as a salt.

Key:
[1] = system: reperfusion-induced arrhythmia upon myocardial ischemia; assay: Reperfusion-induced arrhythmia inhibitory action test; format: in vivo, rat; conditions: male SD rats, 3.62 mmol/L, 1 mL/kg intravenous, within 10 minutes after reperfusion
Method: Subsequently, in evaluation of the in vivo NHE inhibitory action, the effect of the test compound on reperfusion-induced arrhythmia upon myocardial ischemia was evaluated according to the method of Aihara et al. [European Journal of Pharmacology, Vol. 404, p. 221-229 (2000)]. Under anesthesia using pentobarbital sodium (60 mg/kg, intraperitoneal administration), cannulae were inserted into trachea, femoral vein and carotid artery of male SD rats ([…]) for artificial ventilation, drug administration and blood pressure measurement, respectively. The blood pressure was measured using a strain pressure amplifier via a pressure transducer, while the heart rate was measured from the blood pressure pulse wave using a cardiotachometer. Furthermore, an electrocardiogram (lead II) was measured from the electrodes attached to each four limbs. Next, under artificial ventilation, left thoracotomy was performed and a snare (5-0 nylon) was loosely placed around a blood vessel which was about 3 mm apart from the origin of the left coronary artery. Thereafter, it was confirmed that arrhythmia was not occurred for 10 minutes, and then the snare was fastened to induce local myocardial ischemia. Furthermore, after 4 minutes of myocardial ischemia, the compound was intravenously administered for 1 minute, and after 5 minutes of myocardial ischemia, the snare was loosened, then the arrhythmia occurred after reperfusion was recorded and analyzed with an arrhythmia analyzer (Softron Co., Ltd.), thereby the anti-arrhythmic action of the compound was evaluated. […] The control group was administered with physiological saline.
With regard to the ventricular fibrillation (Vf) which occurred within 10 minutes after reperfusion (in the cases of halfway death, up to the time point where cardiac arrest was confirmed), arrhythmia analysis was performed according to the Guidelines for Lambeth Convention [Cardiovascular research, Vol. 22, p. 447-455, 1988], and evaluation was made in terms of the frequency of Vf occurrence, cumulative duration time of Vf, and the mortality.
The frequency of Vf occurrence, cumulative duration of Vf, and the mortality for the respective test compounds are presented in Table 2.

[2] = Metabolic stability test in rat (generation of control compound in plasma); format: in vivo; conditions: male SD rats; for Plasma concentration of the control compound, after 5 min / Plasma concentration of the control compound, after 15 min / Plasma concentration of the control compound, after 30 min / Plasma concentration of the control compound, after 60 min / Plasma concentration of the control compound, after 120 min: equivalent of 1 mg/kg control compound via tail vein, LC/MS/MS; for Decomposition into the Control Compound in vivo (in words): tail vein, plasma 5-120 min
Source text: The compound represented by Formula (1) of the present invention has a structure in which the hydroxyl group on the 9-position of a 9-hydroxymethyl-cyclohepta[b]pyridine-3-carbonylguanidine derivative is converted to a specific substituent. However, if the compound is metabolized in vivo to remove the specific substituent from the compound, there may be generated the original 9-hydroxymethyl-cyclohepta[b]pyridine-3-carbonylguanidine derivative, which has toxic effects on the central nervous system. Thus, the inventive compounds as synthesized in Examples were administered in vivo to study whether the control compound, which was the corresponding 9-hydroxymethyl product, was generated.
Male SD rats (7 weeks old) were administered at 1 mg/kg (an amount calculated excluding salts) of the control compound, an equivalent amount of the Inventive Compound 2, 4, 6, 7 or 12, or Reference Compound 20, through the tail vein. After administration, about 0.2 mL of blood samples were collected after 5, 15, 30, 60 and 120 minutes, and the blood samples were centrifuged at 4° C. at a speed of rotation of 15000 for 15 minutes, thus to separate the supernatant plasma. The concentration of the control compound in the plasma was measured by LC/MS/MS. The measurement results were shown as +++ when the detected plasma concentration of the control compound is 200 ng/mL or greater; ++ for more than 100 ng/mL and less than 200 ng/mL; + for more than 20 ng/mL and less than 100 ng/mL; and − for less than 20 ng/mL or no detection.

Na^+/H^+ exchanger (NHE) = biological target: T1, Na^+/H^+ exchanger (NHE) (Rattus norvegicus, UniProt P26431); assay: NHE inhibitory effect test (swelling of rat platelets induced by sodium propionate); format: cell-based; conditions: for IC50: rat platelet-rich plasma, sodium propionate buffer pH 6.7, 300 μM Amiloride taken as 100% inhibition, Probit method; for NHE inhibitory activity (in words): compared with the control compound
T1 construct: from tissue; host or cells: platelet-rich plasma from Wistar rat blood
Method: The NHE inhibitory activity was measured according to the method by Scholz et al. [British Journal of Pharmacology, Vol. 109, p. 562-568 (1993)], taking the swelling of rat platelets induced by sodium propionate as an index.
Under etherization, blood was collected (8 mL) from the abdominal aorta of a Wistar rat, and 1 mL of a citrate dextrose solution as an anticoagulant was added. The blood sample was immediately centrifuged at 90×g for 10 minutes, and then the collected supernatant was taken as platelet-rich plasma. Subsequently, to 250 μL of a 140 mM sodium propionate buffer solution containing the test compound dissolved in dimethylsulfoxide (pH 6.7, final dimethylsulfoxide concentration 1%), the platelet-rich plasma prepared in the above (number of platelet; 10×10^6/50 μL) was added, and the decrease in the absorbance associated with the swelling of platelets was measured over time with a Hematracer (NKK Corp.).
The rate of decrease in the absorbance at 20 seconds after the addition of the platelet-rich plasma was taken as the NHE activity, and the inhibitory activity of the respective compounds was expressed as a relative activity, while the action obtained upon addition of 300 μM of Amiloride was taken as 100% inhibition.
In addition, the test results were obtained by calculating the concentration at which the inhibitory activity of the test compound becomes 50% (IC50 value), by a Probit method.

male mice = assay: Toxicity test with 2-days repeated intraperitoneal administration in mouse; format: in vivo; conditions: equivalent of 300 mg/kg control compound intraperitoneally once a day for 2 days
Method: For three male mice in each group, 300 mg/kg of the Control Compound (an amount calculated excluding salts), or an equivalent amount of the Inventive Compound 2, 4, 6, 7 or 12 were intraperitoneally administered once a day for 2 days, and a histopathological tests were performed. The Control Compound, and the Inventive Compounds 2, 4 and 6 were suspended in a 0.5% tragacanth gum solution, and the Inventive Compound 7 was suspended in a 10 DMSO-containing 0.5% tragacanth gum solution, while the Inventive Compound 12 was suspended in olive oil. For the histopathological test, in order to make a more thorough examination of central nervous toxicity, the brain was examined after whole body was subjected to perfusion fixation with a 4% formaldehyde in neutral phosphate buffer as a fixing solution using a liquid transporting pump under pentobarbital sodium anesthesia.

Beagle dogs = assay: Toxicity test after 4-days repeated intravenous administration in beagle dogs; format: in vivo, dog; conditions: equivalent of 30 mg/kg control compound intravenously once a day for 4 days
Method: With one male and one female dogs in each group, 30 mg/kg of the Control Compound dissolved in physiological saline (an amount calculated excluding salts), or an equivalent amount of the Inventive Compound 2, 4, 6 or 8 was repeatedly administered intravenously once a day for 4 days, and general symptom observation and pharmacological histopathologic examination were performed.

T1 sequence (P26431 whole entry): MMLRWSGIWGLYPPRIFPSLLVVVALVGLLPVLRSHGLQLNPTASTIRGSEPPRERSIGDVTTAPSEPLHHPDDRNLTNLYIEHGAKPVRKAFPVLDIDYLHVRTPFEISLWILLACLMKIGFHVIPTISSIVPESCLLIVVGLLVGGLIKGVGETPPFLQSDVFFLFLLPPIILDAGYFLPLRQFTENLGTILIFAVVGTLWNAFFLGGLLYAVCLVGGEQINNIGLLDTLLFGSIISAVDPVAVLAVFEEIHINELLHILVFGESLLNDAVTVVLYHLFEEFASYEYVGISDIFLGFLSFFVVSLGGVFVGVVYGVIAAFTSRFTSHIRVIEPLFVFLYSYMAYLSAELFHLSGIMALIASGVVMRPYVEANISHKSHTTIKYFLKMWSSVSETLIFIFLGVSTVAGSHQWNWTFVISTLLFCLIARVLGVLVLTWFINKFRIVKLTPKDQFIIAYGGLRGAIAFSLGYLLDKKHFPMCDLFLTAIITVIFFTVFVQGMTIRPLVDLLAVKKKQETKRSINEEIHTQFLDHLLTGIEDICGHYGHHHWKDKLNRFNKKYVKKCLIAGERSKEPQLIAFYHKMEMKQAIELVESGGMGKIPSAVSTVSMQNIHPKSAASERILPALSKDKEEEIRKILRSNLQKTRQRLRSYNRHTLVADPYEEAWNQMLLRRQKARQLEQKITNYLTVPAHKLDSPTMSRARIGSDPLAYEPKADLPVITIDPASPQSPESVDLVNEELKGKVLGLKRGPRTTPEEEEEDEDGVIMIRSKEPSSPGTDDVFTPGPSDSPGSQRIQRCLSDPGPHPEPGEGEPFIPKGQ

NHE inhibitory activity (in words) (Na^+/H^+ exchanger (NHE))	SMILES	Cumulative duration of Vf [1] [s]	Frequency of Vf occurrence [1] [%]	Mortality [1] [%]	Plasma concentration of the control compound, after 5 min [2]	Plasma concentration of the control compound, after 15 min [2]	Plasma concentration of the control compound, after 30 min [2]	Plasma concentration of the control compound, after 60 min [2]	Plasma concentration of the control compound, after 120 min [2]	Decomposition into the Control Compound in vivo (in words) [2]	IC50 (Na^+/H^+ exchanger (NHE)) [µM]	Histopathological finding in the brain (male mice)	General condition (symptom observation) (Beagle dogs)	Pathologic examination of the brain (Beagle dogs)
–	Cc1nc2c(cc1C(=O)NC(=N)N)CCCCC2COP(=O)([O-])[O-].[Na+].[Na+] (stereo not drawn) [Reference Compound 20, 3-Guanidinocarbonyl-2-methyl-6,7,8,9-tetrahydro-5H-cyclohepta[b]pyridin-9-ylmethyl phosphate disodium salt, reference compound]	46.8	80	40	+++ (+++ when the detected plasma concentration of the control compound is 200 ng/mL or greater)	++ (++ for more than 100 ng/mL and less than 200 ng/mL)	+ (+ for more than 20 ng/mL and less than 100 ng/mL)	+ (+ for more than 20 ng/mL and less than 100 ng/mL)	− (− for less than 20 ng/mL or no detection)	rapidly degraded to the Control Compound	0.662	–	–	–
–	Cc1nc2c(cc1C(=O)NC(=N)N)CCCCC2COC(=O)N[C@H]1CO[C@H]2[C@@H]1OC[C@H]2OS(=O)(=O)O (stereo partly drawn) [Inventive Compound 12, 2-Deoxy-1,4:3,6-dianhydro-2-(3-guanidinocarbonyl-2-methyl-6,7,8,9-tetrahydro-5H-cyclohepta[b]pyridin-9-ylmethyloxycarbonylamino)-D-glucitol-5-yl hydrogen sulfate]	0.0	0	0	− (− for less than 20 ng/mL or no detection)	− (− for less than 20 ng/mL or no detection)	− (− for less than 20 ng/mL or no detection)	− (− for less than 20 ng/mL or no detection)	− (− for less than 20 ng/mL or no detection)	not detected at any time point	0.227	any histologic finding which could be caused by drug administration was not recognized	–	–
–	Cc1nc2c(cc1C(=O)NC(=N)N)CCCCC2COC(=O)NCCOCCOS(=O)(=O)O (stereo not drawn) [Inventive Compound 7, 2-[2-(3-Guanidinocarbonyl-2-methyl-6,7,8,9-tetrahydro-5H-cyclohepta[b]pyridin-9-ylmethyloxycarbonylamino)ethoxy]ethyl hydrogen sulfate]	15.4	40	0	− (− for less than 20 ng/mL or no detection)	− (− for less than 20 ng/mL or no detection)	− (− for less than 20 ng/mL or no detection)	− (− for less than 20 ng/mL or no detection)	− (− for less than 20 ng/mL or no detection)	not detected at any time point	0.313	any histologic finding which could be caused by drug administration was not recognized	–	–
–	Cc1nc2c(cc1C(=O)NC(=N)N)CCCCC2COC(=O)NCCOCCOCCOCCOCCOCCOS(=O)(=O)[O-].[Na+] (stereo not drawn) [Inventive Compound 10, 17-(3-Guanidinocarbonyl-2-methyl-6,7,8,9-tetrahydro-5H-cyclohepta[b]pyridin-9-ylmethyloxycarbonylamino)-3,6,9,12,15-pentaoxaheptadecan-1-yl sulfate sodium salt]	11.1	67	0	–	–	–	–	–	–	0.291	–	–	–
significant lowering in the activity	N=C(N)NC(=O)c1cc2c(nc1COS(=O)(=O)O)CCCCC2 [Reference Compound 22, 3-Guanidinocarbonyl-6,7,8,9-tetrahydro-5H-cyclohepta[b]pyridin-2-ylmethyl hydrogen sulfate, reference compound]	–	–	–	–	–	–	–	–	–	> 100	–	–	–
–	Cc1nc2c(cc1C(=O)NC(=N)N)CCCCC2COC(=O)NCCOCCOS(=O)(=O)[O-].[Na+] (stereo not drawn) [Inventive Compound 8, 2-[2-(3-Guanidinocarbonyl-2-methyl-6,7,8,9-tetrahydro-5H-cyclohepta[b]pyridin-9-ylmethyloxycarbonylamino)ethoxy]ethyl sulfate sodium salt]	–	–	–	–	–	–	–	–	–	–	–	only vomiting was recognized	any histologic finding which could be caused by drug administration was not recognized
significant lowering in the activity	Cc1nc2c(cc1C(=O)NC(=N)N)C(OS(=O)(=O)O)CCCC2 (stereo not drawn) [Reference Compound 23, 3-Guanidinocarbonyl-2-methyl-6,7,8,9-tetrahydro-5H-cyclohepta[b]pyridin-5-yl hydrogen sulfate, reference compound]	–	–	–	–	–	–	–	–	–	37.1	–	–	–
